Assay results taken from PMC10893275, “A System for Discovering Novel Uricosurics Targeting Urate Transporter 1 Based on In Vitro and In Vivo Modeling” (Pharmaceutics, 2024).
Values belong to the compound of their own block, whether it stands above or below them.

Key:
[1] = target: T1, urate transporter 1 (URAT1) (Homo sapiens, UniProt Q96S37); assay: non-isotopic uric acid uptake inhibition in URAT1-overexpressing HEK293 cells (positive control drug); type: cell-based
T1 construct: gene SLC22A12
T1 sequence (Q96S37 1-553): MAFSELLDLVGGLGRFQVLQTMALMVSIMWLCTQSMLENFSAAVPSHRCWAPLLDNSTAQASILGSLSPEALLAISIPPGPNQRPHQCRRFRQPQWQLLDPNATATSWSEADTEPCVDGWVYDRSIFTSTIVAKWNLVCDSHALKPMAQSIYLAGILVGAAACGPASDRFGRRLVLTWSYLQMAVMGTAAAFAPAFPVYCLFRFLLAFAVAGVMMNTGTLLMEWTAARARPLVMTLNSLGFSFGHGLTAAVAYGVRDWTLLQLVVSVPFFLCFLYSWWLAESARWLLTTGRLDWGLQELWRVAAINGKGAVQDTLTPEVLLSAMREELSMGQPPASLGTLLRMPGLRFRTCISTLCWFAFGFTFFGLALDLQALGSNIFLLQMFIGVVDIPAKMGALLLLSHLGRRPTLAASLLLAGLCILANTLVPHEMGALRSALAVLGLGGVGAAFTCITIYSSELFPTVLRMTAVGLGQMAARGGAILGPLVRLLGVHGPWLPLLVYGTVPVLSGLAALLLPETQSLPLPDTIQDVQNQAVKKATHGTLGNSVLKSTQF

[2] = target: T2, xanthine oxidoreductase (XOR) (Bos taurus, UniProt P80457)
T2 construct: gene XDH
T2 sequence (P80457 2-1332): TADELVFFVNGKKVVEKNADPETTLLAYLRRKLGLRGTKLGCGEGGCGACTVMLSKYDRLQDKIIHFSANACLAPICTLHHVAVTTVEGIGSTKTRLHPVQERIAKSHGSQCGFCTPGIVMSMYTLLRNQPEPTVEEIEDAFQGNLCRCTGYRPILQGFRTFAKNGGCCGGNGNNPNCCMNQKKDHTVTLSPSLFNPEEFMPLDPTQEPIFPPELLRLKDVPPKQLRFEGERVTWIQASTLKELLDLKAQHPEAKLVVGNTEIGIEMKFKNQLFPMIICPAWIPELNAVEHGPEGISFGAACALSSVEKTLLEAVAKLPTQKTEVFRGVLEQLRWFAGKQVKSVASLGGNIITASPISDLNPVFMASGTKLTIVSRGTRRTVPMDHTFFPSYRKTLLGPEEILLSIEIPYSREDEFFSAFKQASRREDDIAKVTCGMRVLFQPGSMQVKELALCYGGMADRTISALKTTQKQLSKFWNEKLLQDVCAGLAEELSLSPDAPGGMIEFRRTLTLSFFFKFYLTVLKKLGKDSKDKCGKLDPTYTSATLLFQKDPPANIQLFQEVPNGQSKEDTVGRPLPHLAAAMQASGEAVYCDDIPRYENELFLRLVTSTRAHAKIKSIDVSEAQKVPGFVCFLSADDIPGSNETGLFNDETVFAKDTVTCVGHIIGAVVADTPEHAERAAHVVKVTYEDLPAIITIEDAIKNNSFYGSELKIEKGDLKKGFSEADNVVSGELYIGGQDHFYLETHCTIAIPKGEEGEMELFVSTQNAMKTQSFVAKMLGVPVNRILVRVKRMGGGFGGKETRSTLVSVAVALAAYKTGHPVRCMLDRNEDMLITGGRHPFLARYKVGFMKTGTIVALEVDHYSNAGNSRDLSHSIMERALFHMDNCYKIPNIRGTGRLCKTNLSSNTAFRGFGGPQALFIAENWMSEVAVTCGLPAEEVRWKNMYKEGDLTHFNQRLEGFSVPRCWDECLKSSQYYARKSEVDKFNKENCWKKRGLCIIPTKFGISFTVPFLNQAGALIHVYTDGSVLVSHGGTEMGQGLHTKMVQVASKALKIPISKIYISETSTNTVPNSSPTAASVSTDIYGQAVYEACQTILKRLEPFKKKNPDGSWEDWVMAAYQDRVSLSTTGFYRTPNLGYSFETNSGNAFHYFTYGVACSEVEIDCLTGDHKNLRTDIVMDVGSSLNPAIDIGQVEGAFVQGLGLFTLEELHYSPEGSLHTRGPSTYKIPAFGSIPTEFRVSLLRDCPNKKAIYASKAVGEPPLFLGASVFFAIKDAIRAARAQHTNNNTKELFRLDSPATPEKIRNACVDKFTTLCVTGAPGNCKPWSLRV

[3] = target: T1, urate transporter 1 (URAT1); assay: non-isotopic uric acid uptake inhibition in URAT1-overexpressing HEK293 cells; type: cell-based

IC50 [1]: 130 nM
Compound: O=C(O)C1(Sc2ccnc3ccc(Br)cc23)CCC1 [SHR4640]

Compound: Cc1nc(-c2ccc(OCC(C)C)c(C#N)c2)sc1C(=O)O [febuxostat]
% inhibition at 0.1 μM [2]: 94.8

IC50 [3]: 1690 nM
Compound: O=C(O)C1(Sc2ccccc2N2CCOc3ccccc32)CCC1 [CC18002]
